Reference: PubChem BioAssay AID248 (DTP/NCI, 2004)
Where “and” joins values, the source holds several entries; their conditions need not be identical. Equal entries are not always repeated. Toxic doses and inconclusive results are not listed. Rule as the data show it: active = T/C of 150% or more; inactive = T/C below 125%.

Tested on: L1210 leukemia ip in BDF1 mice, survival T/C
Test: NCI In Vivo Anticancer Drug Screen. Data for tumor model L1210 Leukemia (intraperitoneal) in B6D2F1 (BDF1) mice
Details: higher = longer survival
Procedure, shortened: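 Mice bearing the transplanted tumor received compound or vehicle. Survival of the treated group was divided by that of the vehicle-treated control group to give the ratio.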

[1] = endpoint: mean survival time, dose: 100.0 mg/kg/injection, schedule: Q01DX009 (ip), vehicle: saline with Tween-80
[2] = endpoint: mean survival time, dose: 200.0 mg/kg/injection, schedule: Q01DX009 (ip), vehicle: saline with Tween-80
[3] = endpoint: mean survival time, dose: 400.0 mg/kg/injection, schedule: Q01DX009 (ip), vehicle: saline with Tween-80
[4] = endpoint: mean survival time, dose: 100.0 mg/kg/injection, schedule: Q01DX009 (ip), vehicle: Klucel (hydroxypropylcellulose) (HPC)
[5] = endpoint: mean survival time, dose: 100.0 mg/kg/injection, schedule: Q04DX003 (ip), vehicle: Klucel (hydroxypropylcellulose) (HPC)
[6] = endpoint: mean survival time, dose: 200.0 mg/kg/injection, schedule: Q04DX003 (ip), vehicle: Klucel (hydroxypropylcellulose) (HPC)
[7] = endpoint: mean survival time, dose: 400.0 mg/kg/injection, schedule: Q04DX003 (ip), vehicle: Klucel (hydroxypropylcellulose) (HPC)
[8] = endpoint: mean survival time, dose: 100.0 mg/kg/injection, schedule: Q04DX003 (ip), vehicle: saline with Tween-80
[9] = endpoint: mean survival time, dose: 200.0 mg/kg/injection, schedule: Q04DX003 (ip), vehicle: saline with Tween-80
[10] = endpoint: mean survival time, dose: 400.0 mg/kg/injection, schedule: Q04DX003 (ip), vehicle: saline with Tween-80
[11] = endpoint: mean survival time, dose: 100.0 mg/kg/injection, schedule: Q04DX002 (ip), vehicle: saline with Tween-80
[12] = endpoint: mean survival time, dose: 200.0 mg/kg/injection, schedule: Q04DX002 (ip), vehicle: saline with Tween-80
[13] = endpoint: mean survival time, dose: 400.0 mg/kg/injection, schedule: Q04DX002 (ip), vehicle: saline with Tween-80
[14] = endpoint: mean survival time, dose: 100.0 mg/kg/injection, schedule: Q04DX002 (ip), vehicle: Klucel (hydroxypropylcellulose) (HPC)
[15] = endpoint: mean survival time, dose: 200.0 mg/kg/injection, schedule: Q04DX002 (ip), vehicle: Klucel (hydroxypropylcellulose) (HPC)
[16] = endpoint: mean survival time, dose: 50.0 mg/kg/injection, schedule: Q01DX009 (ip), vehicle: saline
[17] = endpoint: mean survival time, dose: 100.0 mg/kg/injection, schedule: Q01DX009 (ip), vehicle: saline
[18] = endpoint: mean survival time, dose: 200.0 mg/kg/injection, schedule: Q01DX009 (ip), vehicle: saline
[19] = endpoint: mean survival time, dose: 75.0 mg/kg/injection, schedule: Q01DX001 (ip), vehicle: saline
[20] = endpoint: mean survival time, dose: 150.0 mg/kg/injection, schedule: Q01DX001 (ip), vehicle: saline

Measured: T/C

Nc1ccccc1CCc1ccccc1N
inactive: [1] 98 % of control | [2] 98 % of control | [3] 94 % of control

O=[N+]([O-])c1cccc(-c2cc(-c3cccs3)cc(-c3ccccc3)n2)c1
inactive: endpoint: mean survival time, dose: 100.0 mg/kg/injection, schedule: Q04DX002 (ip), vehicle: gum acacia 93 % of control | endpoint: mean survival time, dose: 200.0 mg/kg/injection, schedule: Q04DX002 (ip), vehicle: gum acacia 93 % of control | endpoint: mean survival time, dose: 400.0 mg/kg/injection, schedule: Q04DX002 (ip), vehicle: gum acacia 93 % of control

Cc1cccc(NC(=O)CCl)c1
inactive: endpoint: mean survival time, dose: 25.0 mg/kg/injection, schedule: Q01DX009 (ip), vehicle: Klucel (hydroxypropylcellulose) (HPC) 94 % of control | endpoint: mean survival time, dose: 50.0 mg/kg/injection, schedule: Q01DX009 (ip), vehicle: Klucel (hydroxypropylcellulose) (HPC) 87 % of control | [4] 103 % of control and 92 % of control | [5] 103 % of control | [6] 96 % of control and 86 % of control | [7] 99 % of control

CCOC(=O)c1ccccc1N(O)C(=O)NC12CC3CC(CC(C3)C1)C2
inactive: [8] 94 % of control | [9] 94 % of control | [10] 94 % of control

CN1CCN(C(=O)C2C(c3ccccc3)C2c2cccc(C(F)(F)F)c2)CC1 (configuration not stated)
inactive: [11] 103 % of control | [12] 98 % of control | [13] 92 % of control

OC(COc1ccccc1)CN1CCN(c2ccccc2)CC1 (configuration not stated)
inactive: [14] 98 % of control | [15] 102 % of control | endpoint: mean survival time, dose: 400.0 mg/kg/injection, schedule: Q04DX002 (ip), vehicle: Klucel (hydroxypropylcellulose) (HPC) 95 % of control and 102 % of control

FC(F)(F)C(Cl)(Cc1ccc2ccccc2n1)C(F)(F)F
inactive: endpoint: mean survival time, dose: 50.0 mg/kg/injection, schedule: Q04DX003 (ip), vehicle: saline with Tween-80 102 % of control | [1] 105 % of control | [8] 101 % of control | [2] 100 % of control | [9] 102 % of control | [3] 103 % of control | [10] 94 % of control

CCN(C)CCC(CNC(=O)CN(CC)CC)(c1cccc2ccccc12)C(C)C (configuration not stated)
inactive: [16] 94 % of control | [17] 91 % of control | endpoint: mean survival time, dose: 100.0 mg/kg/injection, schedule: Q04DX003 (ip), vehicle: saline 103 % of control | [18] 101 % of control | endpoint: mean survival time, dose: 200.0 mg/kg/injection, schedule: Q04DX003 (ip), vehicle: saline 103 % of control

CCCCCNS(=O)(=O)CCCC
inactive: endpoint: mean survival time, dose: 100.0 mg/kg/injection, schedule: Q04DX002 (ip), vehicle: other 111 % of control | endpoint: mean survival time, dose: 200.0 mg/kg/injection, schedule: Q04DX002 (ip), vehicle: other 96 % of control | endpoint: mean survival time, dose: 400.0 mg/kg/injection, schedule: Q04DX002 (ip), vehicle: other 103 % of control

CCC(=CCC1=C(O)c2ccccc2C(=O)C1=O)CC
inactive: endpoint: mean survival time, dose: 25.0 mg/kg/injection, schedule: Q01DX009 (ip), vehicle: water 120 % of control | endpoint: mean survival time, dose: 50.0 mg/kg/injection, schedule: Q01DX009 (ip), vehicle: water 97 % of control | endpoint: mean survival time, dose: 100.0 mg/kg/injection, schedule: Q01DX001 (ip), vehicle: water 103 % of control | endpoint: mean survival time, dose: 100.0 mg/kg/injection, schedule: Q01DX009 (ip), vehicle: water 100 % of control | endpoint: mean survival time, dose: 200.0 mg/kg/injection, schedule: Q01DX009 (ip), vehicle: water 94 % of control

c1ccc(N=Nc2ccc(NC3=NCCO3)cc2)cc1
inactive: [5] 95 % of control | [6] 98 % of control

CCCC(C#N)(c1ccccc1)c1ccccc1
inactive: endpoint: mean survival time, dose: 100.0 mg/kg/injection, schedule: Q01DX001 (ip), vehicle: Klucel (hydroxypropylcellulose) (HPC) 97 % of control | [4] 95 % of control | [5] 91 % of control | endpoint: mean survival time, dose: 200.0 mg/kg/injection, schedule: Q01DX001 (ip), vehicle: Klucel (hydroxypropylcellulose) (HPC) 92 % of control | endpoint: mean survival time, dose: 200.0 mg/kg/injection, schedule: Q01DX009 (ip), vehicle: Klucel (hydroxypropylcellulose) (HPC) 95 % of control | [6] 104 % of control | endpoint: mean survival time, dose: 400.0 mg/kg/injection, schedule: Q01DX001 (ip), vehicle: Klucel (hydroxypropylcellulose) (HPC) 102 % of control | [7] 94 % of control

O=C(CSCc1ccccc1)c1ccccc1
inactive: [8] 90 % of control | [9] 90 % of control | [10] 100 % of control

CC(=O)NC1C(OCC(NC(=O)OCc2ccccc2)C(=O)NC(CC(=O)OCc2ccccc2)C(=O)OCc2ccccc2)OC(COC(C)=O)C(OC(C)=O)C1OC(C)=O (configuration not stated)
inactive: endpoint: mean survival time, dose: 50.0 mg/kg/injection, schedule: Q04DX002 (ip), vehicle: Klucel (hydroxypropylcellulose) (HPC) 97 % of control | [14] 97 % of control | [15] 87 % of control

Cc1c(Cl)cccc1Nc1n[nH]c(=S)s1
inactive: endpoint: mean survival time, dose: 75.0 mg/kg/injection, schedule: Q01DX001 (ip), vehicle: other 98 % of control | endpoint: mean survival time, dose: 150.0 mg/kg/injection, schedule: Q01DX001 (ip), vehicle: other 98 % of control | endpoint: mean survival time, dose: 300.0 mg/kg/injection, schedule: Q01DX001 (ip), vehicle: other 93 % of control

O=C1NC(O)CCN1C1OC(CO)C(O)C1O (configuration not stated)
inactive: endpoint: mean survival time, dose: 25.0 mg/kg/injection, schedule: Q01DX009 (ip), vehicle: saline 101 % of control | [16] 113 % of control | endpoint: mean survival time, dose: 50.0 mg/kg/injection, schedule: Q01DX015 (ip), vehicle: saline 98 % of control | [17] 95 % of control | endpoint: mean survival time, dose: 100.0 mg/kg/injection, schedule: Q01DX015 (ip), vehicle: saline 94 % of control | [18] 110 % of control | endpoint: mean survival time, dose: 400.0 mg/kg/injection, schedule: Q01DX009 (ip), vehicle: saline 90 % of control | endpoint: mean survival time, dose: 800.0 mg/kg/injection, schedule: Q01DX009 (ip), vehicle: saline 95 % of control | endpoint: median survival time, dose: 500.0 mg/kg/injection, schedule: Q01DX009 (ip), vehicle: saline 102 % of control | endpoint: median survival time, dose: 1000.0 mg/kg/injection, schedule: Q01DX009 (ip), vehicle: saline 94 % of control | endpoint: median survival time, dose: 2000.0 mg/kg/injection, schedule: Q01DX009 (ip), vehicle: saline 93 % of control

C(#CCN1CCCCC1)CN1CCCCC1
inactive: [19] 105 % of control | [20] 103 % of control | endpoint: mean survival time, dose: 300.0 mg/kg/injection, schedule: Q01DX001 (ip), vehicle: saline 101 % of control

Cc1cccc(Cl)c1N=Nc1sc(N)nc1C
inactive: [19] 105 % of control | [20] 105 % of control

CC(=O)NC1CCC(CCC2CCCCC2)CC1 (configuration not stated)
inactive: [11] 98 % of control | [12] 94 % of control | [13] 98 % of control

CCCCCCCCCCCCCCCCCC(=O)N/N=C/CCc1ccccc1
inactive: [1] 87 % of control

CNC(=O)c1cn(C2OC(CO)C(O)C2O)c2ncnc(N)c12 (configuration not stated)
inactive: endpoint: mean survival time, dose: 88.0 mg/kg/injection, schedule: Q01DX001 (ip), vehicle: water 120 % of control | endpoint: mean survival time, dose: 400.0 mg/kg/injection, schedule: Q01DX001 (ip), vehicle: water 117 % of control

CCOc1ccc(NC(=S)NC(=O)c2ccco2)cc1
inactive: [1] 93 % of control | [5] 104 % of control | [2] 93 % of control | [6] 94 % of control | [7] 100 % of control
